Assay results reported in article PMC3567921 (Clinical cancer research : an official journal of the …, 2012).

Target: T1, Axl (Homo sapiens, UniProt P30530)
T1 sequence (P30530 26-894): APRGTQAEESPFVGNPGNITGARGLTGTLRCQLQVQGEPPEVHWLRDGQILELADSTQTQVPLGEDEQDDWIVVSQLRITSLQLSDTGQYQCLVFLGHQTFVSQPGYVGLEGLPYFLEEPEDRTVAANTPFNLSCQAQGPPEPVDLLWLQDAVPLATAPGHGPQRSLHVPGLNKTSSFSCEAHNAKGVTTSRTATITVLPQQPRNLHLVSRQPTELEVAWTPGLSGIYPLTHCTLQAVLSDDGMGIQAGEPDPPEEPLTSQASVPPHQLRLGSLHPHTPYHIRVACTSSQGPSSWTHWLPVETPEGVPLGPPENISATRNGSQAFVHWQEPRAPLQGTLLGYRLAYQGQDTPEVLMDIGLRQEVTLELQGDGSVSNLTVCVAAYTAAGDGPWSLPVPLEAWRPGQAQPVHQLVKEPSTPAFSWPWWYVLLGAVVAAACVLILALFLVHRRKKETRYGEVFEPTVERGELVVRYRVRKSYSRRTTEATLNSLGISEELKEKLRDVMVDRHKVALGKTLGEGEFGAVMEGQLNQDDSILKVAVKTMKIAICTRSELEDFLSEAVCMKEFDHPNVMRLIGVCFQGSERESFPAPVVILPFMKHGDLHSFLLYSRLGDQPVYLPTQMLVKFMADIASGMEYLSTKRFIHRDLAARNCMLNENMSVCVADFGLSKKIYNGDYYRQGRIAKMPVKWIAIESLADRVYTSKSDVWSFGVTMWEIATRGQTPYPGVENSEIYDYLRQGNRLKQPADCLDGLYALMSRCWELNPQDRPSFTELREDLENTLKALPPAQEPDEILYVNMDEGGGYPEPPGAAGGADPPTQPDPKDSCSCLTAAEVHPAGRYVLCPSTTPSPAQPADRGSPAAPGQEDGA
Assay: anti-FLAG immunoprecipitation, phosphotyrosine Western blot densitometry
Format: cell-based

EC50: < 100 nM
Compound: Cc1c[nH]c2nc(Nc3ccc(N4CCN(C)CC4)c(F)c3)nc(-c3cccc(CC#N)c3)c12 [SGI-7079]
